Reference: BindingDB's records for patent US20250019381 (Cardurion Pharmaceuticals, 2025)

Target: Dual specificity calcium/calmodulin-dependent 3',5'-cyclic nucleotide phosphodiesterase 1A (Human, UniProt P54750)
Test: Enzyme immunoassay

Sequence of Dual specificity calcium/calmodulin-dependent 3',5'-cyclic nucleotide phosphodiesterase 1A (P54750 whole entry): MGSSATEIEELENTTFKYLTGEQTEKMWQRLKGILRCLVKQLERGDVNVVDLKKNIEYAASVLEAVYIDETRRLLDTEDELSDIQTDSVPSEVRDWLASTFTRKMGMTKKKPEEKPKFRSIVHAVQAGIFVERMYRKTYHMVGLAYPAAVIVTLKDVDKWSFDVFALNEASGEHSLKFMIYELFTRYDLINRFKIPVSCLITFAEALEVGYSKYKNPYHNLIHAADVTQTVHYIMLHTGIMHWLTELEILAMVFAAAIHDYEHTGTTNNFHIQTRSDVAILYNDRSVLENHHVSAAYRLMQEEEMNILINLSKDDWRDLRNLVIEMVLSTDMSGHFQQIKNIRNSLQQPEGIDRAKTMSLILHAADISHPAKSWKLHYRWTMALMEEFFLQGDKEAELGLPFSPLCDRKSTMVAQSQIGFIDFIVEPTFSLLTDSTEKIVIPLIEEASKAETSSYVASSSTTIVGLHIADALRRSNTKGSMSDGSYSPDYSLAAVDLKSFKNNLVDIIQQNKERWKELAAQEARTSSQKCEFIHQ

## O=c1[nH]c(CN2CC(Oc3cccnc3)C2)cn2c(C3CCOCC3)ncc12 [US20250019381, Compound (P2)]
  IC50: 5.28 µM
